Test results published in EPA's ToxRefDB 2.

How the values were obtained:
rat [1] = details: Sub-acute repeat dose toxicity, Oral, Gavage/Intubation, dose end: 7 day, group: systemic
rat [2] = details: Sub-acute repeat dose toxicity, Oral, Gavage/Intubation, dose end: 28 day, group: systemic
dog = details: Sub-acute repeat dose toxicity, beagle, Oral, Gavage/Intubation, dose end: 28 day, group: systemic
mouse [3] = details: Combined chronic toxicity/carcinogenicity, other, Inhalation, Whole-Body, dose end: 24 month, group: systemic
rat [4] = details: Combined chronic toxicity/carcinogenicity, fischer, Inhalation, Whole-Body, dose end: 24 month, group: systemic
rat [5] = details: Subchronic inhalation toxicity, fischer, Whole-Body, dose end: 13 week, group: systemic
mouse [6] = details: Subchronic oral toxicity in rodents, B6C3F1, Gavage/Intubation, dose end: 13 week, group: systemic, systemic / pathology microscopic / liver / cytomegaly
mouse [7] = details: Subchronic inhalation toxicity, other, Whole-Body, dose end: 13 week, group: systemic
rat [8] = details: Prenatal developmental toxicity study, sprague dawley, Oral, Gavage/Intubation, dose end: 15 GD
rat [9] = details: Carcinogenicity; fischer; Oral; Gavage/Intubation; dose end: 2 year; group: systemic; systemic / pathology microscopic / kidney / casts + systemic / pathology microscopic / kidney / degeneration + systemic / pathology …
mouse [10] = details: Subchronic oral toxicity in rodents, b6c3f1, Gavage/Intubation, dose end: 13 week, group: systemic, systemic / pathology microscopic / liver / [other] + systemic / pathology microscopic / liver / cytomegaly + systemic / pathology …
rat [11] = details: Subchronic oral toxicity in rodents, fischer, Gavage/Intubation, dose end: 13 week, group: systemic, systemic / pathology microscopic / kidney / degeneration
rat [12] = details: Subchronic oral toxicity in rodents, fischer, Gavage/Intubation, dose end: 13 week, group: systemic, systemic / in life observation / body weight / body weight gain + systemic / pathology microscopic / kidney / [other] + systemic / pathology…
mouse [13] = details: Carcinogenicity; b6c3f1; Oral; Gavage/Intubation; dose end: 103 week; group: systemic; systemic / pathology microscopic / kidney / [other] + systemic / pathology microscopic / kidney / degeneration + systemic / pathology …
[14] = systemic / clinical chemistry / [other] / [other] + systemic / clinical chemistry / albumin / albumin + systemic / clinical chemistry / …
[15] = systemic / in life observation / clinical signs / salivation
[16] = systemic / clinical chemistry / alanine aminotransferase (alt/sgpt) / alanine aminotransferase (alt/sgpt) + systemic / clinical chemistry / …
[17] = systemic / in life observation / clinical signs / lacrimation or red-colored tears + systemic / in life observation / clinical signs / …
[18] = systemic / in life observation / body weight / body weight + systemic / in life observation / clinical signs / dialated pupils + systemic / …
[19] = systemic / in life observation / clinical signs / dialated pupils + systemic / in life observation / clinical signs / distended abdomens + …
[20] = systemic / pathology microscopic / liver / hepatoblastoma + systemic / pathology microscopic / liver / hepatocellular adenoma + systemic / …
[21] = systemic / organ weight / liver / absolute + systemic / organ weight / liver / relative to body weight + systemic / pathology microscopic / …
[22] = systemic / in life observation / body weight / body weight
[23] = systemic / in life observation / body weight / body weight + systemic / organ weight / liver / relative to body weight
[24] = group: developmental, developmental / developmental malformation / bone / supernumerary + systemic / in life observation / body weight / fetal weight
[25] = group: maternal, systemic / in life observation / body weight / body weight gain + systemic / in life observation / food consumption / food consumption

## CSc1ccc(Oc2ccc(S(N)(=O)=O)cc2CN(C)C)cc1C
Rat [1]; [14]
  LOAEL: > 1000 mg/kg/day
  NOAEL: ≥ 1000 mg/kg/day
Rat [1]; [15]
  LEL: 250 mg/kg/day
  NEL: < 250 mg/kg/day
Rat [2]; [16]
  LOAEL: > 500 mg/kg/day
  NOAEL: ≥ 500 mg/kg/day
Rat [2]; [17]
  LEL: 5 mg/kg/day
  NEL: < 5 mg/kg/day
dog; [18]
  LOAEL: > 40 mg/kg/day
  NOAEL: ≥ 40 mg/kg/day
dog; [19]
  LEL: 4 mg/kg/day
  NEL: < 4 mg/kg/day

## Clc1ccc(Cl)cc1 [1,4-Dichlorobenzene]
Mouse [3]; [20]
  LOAEL: > 300 ppm
  NOAEL: ≥ 300 ppm
Mouse [3]; systemic / pathology microscopic / liver / hepatoblastoma + systemic / pathology microscopic / liver / hepatocellular carcinoma + systemic…
  NEL: 20 ppm
Mouse [3]; systemic / pathology microscopic / nose / metaplasia
  LEL: 75 ppm
Rat [4]; [21]
  LOAEL: > 300 ppm
  NEL: 20 ppm
  NOAEL: ≥ 300 ppm
Rat [4]; systemic / pathology microscopic / nose / [other]
  LEL: 75 ppm
Rat [5]; [22]
  LEL: 25 ppm
  NEL: < 25 ppm
Rat [5]; systemic / in life observation / body weight / body weight + systemic / organ weight / kidney / absolute + systemic / organ weight / kidney…
  NOAEL: 120 ppm
Rat [5]; systemic / organ weight / kidney / absolute + systemic / organ weight / kidney / relative to body weight + systemic / pathology microscopic…
  LOAEL: 270 ppm
Mouse [6]
  LEL: 675 mg/kg/day
  LOAEL: 675 mg/kg/day
  NEL: 338 mg/kg/day
  NOAEL: 338 mg/kg/day
Mouse [7]; [23]
  LEL: 25 ppm
  NEL: < 25 ppm
Mouse [7]; systemic / organ weight / liver / absolute + systemic / organ weight / liver / relative to body weight + systemic / clinical chemistry / …
  NOAEL: 120 ppm
Mouse [7]; systemic / organ weight / liver / relative to body weight + systemic / organ weight / liver / absolute + systemic / pathology microscopic / …
  LOAEL: 270 ppm
Rat [8]; group: developmental, developmental / developmental malformation / bone / supernumerary
  LEL: 500 mg/kg/day
Rat [8]; [24]
  LOAEL: > 1000 mg/kg/day
  NEL: 250 mg/kg/day
  NOAEL: ≥ 1000 mg/kg/day
Rat [8]; [25]
  LEL: 500 mg/kg/day
  LOAEL: > 1000 mg/kg/day
  NEL: 250 mg/kg/day
  NOAEL: ≥ 1000 mg/kg/day
Rat [9]
  LEL: 150 mg/kg/day
  LOAEL: 150 mg/kg/day
  NEL: < 150 mg/kg/day
  NOAEL: < 150 mg/kg/day
Mouse [10]
  LEL: 600 mg/kg/day
  LOAEL: 600 mg/kg/day
  NEL: < 600 mg/kg/day
  NOAEL: < 600 mg/kg/day
Rat [11]
  LEL: 300 mg/kg/day
  LOAEL: 300 mg/kg/day
  NEL: 150 mg/kg/day
  NOAEL: 150 mg/kg/day
Rat [12]
  LEL: 300 mg/kg/day
  LOAEL: 300 mg/kg/day
  NEL: < 300 mg/kg/day
  NOAEL: < 300 mg/kg/day
Mouse [13]
  LEL: 300 mg/kg/day
  LOAEL: 300 mg/kg/day
  NEL: < 300 mg/kg/day
  NOAEL: < 300 mg/kg/day
